# Experimental data taken from US7122530B2, “24-hydroxyvitamin D, analogs and uses thereof” (Genzyme Corporation, priority 1998, dated 2006).
# Where two headings read alike, the source gives them in different places.
# Columns and labels:
# [1] = test system: dermatitis (contact and ectopic) patients; assay: Double blind study of oral 24(S)-OH-preD2 formulation in dermatitis (contact and ectopic); assay type: in vivo, human; details: daily oral 10.0 to 20.0 μg, four to six weeks
# Procedure: An oral dosage formulation containing 24(S)-OH-preD2 is evaluated in a double blind study for therapeutic efficacy of the formulation in the treatment of dermatitis (contact and ectopic). The formulation evaluated contains 10.0 to 20.0 μg of 24(S)-OH-preD2. […] The patients are treated in an outpatient clinic and are divided into an experimental and control population. They are instructed to take the medication once a day, in the morning before breakfast.
# In each patient (experimental and control) an area of the skin containing a lesion is selected which is ordinarily covered by clothing, and the patients are instructed not to expose the skin area selected for study to sunlight. The area of the lesion is estimated and recorded, and the lesion(s) is photographed. Relevant details of the photographic procedure are recorded so as to be reproduced when the lesions are next photographed (distance, aperture, angle, background, etc.).
# Evaluations of erythema, scaling, and thickness are conducted at weekly intervals by a physician. The final evaluation is usually carried out at the end of four to six weeks of treatment.
# [2] = Production of 1α,24(S)-(OH)2-25-ene-D2 in osteoporotic women (blood metabolite, HPLC and radioreceptor assay); assay type: in vivo, human; details: 25 μg/day for one week; one day following the last dose
# Procedure: Human female subjects, who have been diagnosed with osteoporosis, are given daily doses of 25 μg/day 24-OH-25-ene-D2 for one week. Blood is collected and analyzed for the metabolite 1α,24(S)-(OH)2-25-ene-D2. Lipid is extracted from the blood, and the metabolite is purified by HPLC using standard methods and quantified with the radioreceptor assay produced by Incstar (Stillwater, Minn.).
# [3] = test system: patients with primary hyperparathyroidism; assay: Clinical trial of 24-OH-preD2 for primary hyperparathyroidism; assay type: in vivo, human
# Procedure: Twenty renal patients are enrolled in a clinical trial to study primary hyperparathyroidism. The patients show baseline iPTH levels greater than 200 pg/mL. An initial dose of 24-OH-preD2 (2–4 μg/day) is increased (maximum, 10 μg/day) or decreased as necessary to attain and maintain iPTH in the normal range. After 11–12 weeks of treatment, the iPTH levels of the patients decrease to below 100 pg/mL, and in many cases to below 60 pg/mL.
# [4] = test system: subjects with secondary hyperparathyroidism; assay: Twelve-month placebo-controlled trial of 24-OH-preD2 in elderly subjects with secondary hyperparathyroidism; assay type: in vivo, human; details: 15 μg/day, twelve months
# Procedure: (§1) A twelve-month double-blind placebo-controlled clinical trial is conducted with forty subjects with secondary hyperparathyroidism. The selected subjects have ages between 60 and 100 years and have a history of secondary hyperparathyroidism. Subjects also have femoral neck osteopenia (femoral neck bone mineral density of ≦0.70 g/cm^2).
# (§2) All subjects enter a six-week control period after which the subjects are randomized into two treatment groups: one group receives a constant dosage of 15 μg/day 24-OH-preD2, and the other group receives a matching placebo. Both groups maintain a normal intake of dietary calcium without the use of calcium supplements. Efficacy is evaluated by pre- and post-treatment comparisons of the two patient groups with regard to (a) intact PTH (iPTH); (b) radial, femoral and spinal bone mineral density; and (c) bone-specific urine markers (e.g., pyridinium crosslinks). Safety is evaluated by (a) serium calcium and phosphorus, and (b) urine calcium and phosphorus.
# [5] = test system: patients with advanced androgen-independent prostate cancer; assay: Study of Example 10 repeated with 24-OH-preD2 in prostate cancer; assay type: in vivo, human; details: for progression of metastatic disease (CAT scans, X-rays and bone scans): phase two, after two years
# Description: Patients with advanced androgen-independent prostate cancer participate in an open-label study of 24-(OH)-D2. […] On admission to the study, patients begin a course of therapy with oral 24-(OH)-D2 lasting 26 weeks, while discontinuing any previous use of calcium supplements, vitamin D supplements, and vitamin D hormone replacement therapies. During treatment, the patients are monitored at regular intervals for: (1) hypercalcemia, hyperphosphatemia, hypercalciuria, hyperphosphaturia and other toxicity; (2) evidence of changes in the progression of metastatic disease; and (3) compliance with the prescribed test drug dosage.
# The study is conducted in two phases. During the first phase, the maximal tolerated dosage (MTD) of daily oral 24-(OH)D2 is determined by administering progressively higher dosages to successive groups of patients. All doses are administered in the morning before breakfast. The first group of patients is treated with 25.0 μg of 24-(OH)D2. Subsequent groups of patients are treated with 50.0, 75.0 and 100.0 μg/day. Dosing is continued uninterrupted for the duration of the study unless serum calcium exceeds 11.6 mg/dL, or other toxicity of grade 3 or 4 is observed, in which case dosing is held in abeyance until resolution of the observed toxic effect(s) and then resumed at a level which has been decreased by 10.0 μg.
# The study of Example 10 is repeated for the vitamin D compound, 24-OH-preD2.
# [6] = Blood level of 1α,24-(OH)2-D2 in vitamin D-deficient rats given 24-OH-previtamin D2; assay type: in vivo; details: 0.25 μg/kg oral; four hours after administration
# Procedure: Male weanling rats are fed a diet deficient in vitamin D and with normal calcium (0.47%). After a period of four weeks has elapsed, the rats are divided into two groups, and orally administered either 24-OH-previtamin D2 (0.25 μg/kg) in a vehicle such as lactose or the vehicle (control) alone.
# [7] = test system: postmenopausal osteoporotic outpatients; assay: Clinical study of osteoporosis treatment with 24-OH-preD2; assay type: in vivo, human; details: oral, above 5.0 μg/day, 24 months
# Procedure: A clinical study is conducted with postmenopausal osteoporotic outpatients having ages between 55 and 75 years. The study involves up to 120 patients randomly divided into three treatment groups, and continues for 24 months. Two of the treatment groups receive constant dosages of orally administered 24-OH-preD2 (u.i.d.; two different dose levels above 5.0 μg/day) and the other group receives a matching placebo. All patients maintain a normal intake of dietary calcium (500 to 800 mg/day) and refrain from using calcium supplements. Efficacy is evaluated by pretreatment and posttreatment comparisons of the patient groups with regard to (a) total body, radial, femoral, and/or spinal bone mineral density as determined by x-ray absorptiometry (DEXA), (b) bone biopsies of the iliac crest, and (c) determinations of serum osteocalcin. Safety is evaluated by comparisons of urinary hydroxyproline excretion, serum and urine calcium levels, creatinine clearance, blood urea nitrogen, and other routine determinations.
# [8] = test system: postmenopausal women; details: cited from earlier work
# [9] = test system: patients (Japan; senile osteoporosis); details: cited from earlier work
# [10] = test system: postmenopausal osteoporotic out-patients; assay: Clinical study of prevention of bone mass loss with 24(S)-OH-25-ene-D2; assay type: in vivo, human; details: at or above 5.0 μg/day, 24 to 36 months
# Procedure: A clinical study is conducted with postmenopausal osteoporotic out-patients having ages between 55 and 75 years. The study involves up to 120 patients randomly divided into three treatment groups and continues for 24 to 36 months. Two of the treatment groups receive constant dosages of 24(S)-OH-25-ene-D2 (u.i.d.; two different dose levels at or above 5.0 μg/day) and the other group receives a matching placebo. All patients maintain a normal intake of dietary calcium (500 to 800 mg/day) and refrain from using calcium supplements. Efficacy is evaluated by pre- and post-treatment comparisons of the patient groups with regard to (a) total body calcium retention, and (b) radial and spinal bone mineral density as determined by dual-photon absorptiometry (DPA) or dual-energy x-ray absorptiometry (DEXA). Safety is evaluated by comparisons of urinary hydroxyproline excretion, serum and urine calcium levels, creatinine clearance, blood urea nitrogen, and other routine determinations.
# [11] = test system: subjects with secondary hyperparathyroidism; assay: Twelve-month placebo-controlled trial of 24-(OH)-D4 in elderly subjects with secondary hyperparathyroidism; assay type: in vivo, human; details: 15 μg/day, twelve months
# Procedure: as §1
# as §2, with “24-(OH)-D4,” for “24-OH-preD2,”
# [12] = In vivo generation of 1α,24-(OH)2-D2 in vitamin D-deficient rats (plasma metabolites by HPLC)
# Procedure: 24-OH-D2 was administered (either oral or intraperitoneal supplementation) to vitamin D-deficient rats. Lipid extracts of the plasma were prepared and the metabolites purified by the method of Horst et al. (Horst, R. L., Koszewski, N. J. and Reinhardt, T. A., Biochem., 29:578–82 (1990) and incorporated herein by reference) described below for synthesizing standard biological 1α,24-(OH)2D2.
compound,measurement,setting,value
24(S)-hydroxyprevitamin D2 [24(S)-OH-preD2],"degree of erythema, scaling, and thickness versus control patients",[1],significantly reduces
24-hydroxy-25-ene-vitamin D2 [24-OH-25-ene-D2],"level of 1α,24(S)-(OH)2-25-ene-D2 in the blood",[2],significant level
24-hydroxyprevitamin D2 [24-OH-preD2],iPTH levels of the patients,"[3]; after 11–12 weeks, baseline greater than 200 pg/mL, 2–4 μg/day, titrated",below 100 pg/mL
same,"iPTH levels, in many cases","[3]; after 11–12 weeks, in many cases",below 60 pg/mL
same,episodes of hypercalcemia,[3]; during the study,few episodes of hypercalcemia
same,bone specific urine markers,[4],significantly decreases
same,incidence of hypercalcemia,[4],insignificant incidence
same,intact PTH (iPTH),[4],significantly decreases
same,radial and spinal bone densities relative to baseline values,[4],stable
same,serum calcium levels,[4],normal serum calcium levels
same,"progression of metastatic disease (CAT scans, X-rays and bone scans)",[5]; higher dosage,stable disease and partial or complete remission in many patients
same,"progression of metastatic disease (CAT scans, X-rays and bone scans)",[5]; lower dosage,stable disease or partial remission in many patients
same,bone pain associated with metastatic disease,[5]; treated with the MTD for at least six months,significantly diminished
same,"blood level of 1α,24-(OH)2-D2 versus control animals",[6],significantly elevated
same,bone biopsies (bone formation),[7],stimulates normal bone formation
same,"incidence of hypercalcemia or hypercalciuria, or any other metabolic disturbance",[7],insignificant incidence
same,serum osteocalcin,[7],significant elevations
same,"total body, radial, femoral, and/or spinal bone densities relative to placebo",[7],significantly higher
"C=C1/C(=C\C=C2/CCC[C@]3(C)[C@@H]([C@H](C)CCCC(C)(C)O)CC[C@@H]23)C[C@@H](O)C[C@@H]1O [1α,25-dihydroxyvitamin D3]",intestinal calcium absorption and calcium balance,"[8]; 0.5 μg/day, postmenopausal women",improved
same,effects on bone mass or mineral content,[8]; dosage levels below 0.5 μg/day,no effects are observed
C=C1/C(=C\C=C2/CCC[C@]3(C)[C@@H]([C@H](C)CCCC(C)C)CC[C@@H]23)C[C@@H](O)C[C@@H]1O [1α-hydroxyvitamin D3],efficacy,"[9]; 1 μg/day, Japan, low calcium intake",efficacy is found
same,patients in whom toxicity occurs,[9]; 1 μg/day,approximately 20%
same,patients in whom toxicity occurs,[9]; 2 μg/day,approximately 67%
C=C1CC[C@H](O)C/C1=C/C=C1\CCC[C@]2(C)[C@@H]([C@H](C)/C=C/[C@](C)(O)C(=C)C)CC[C@@H]12 [24(S)-OH-25-ene-D2],"incidence of hypercalcemia or hypercalciuria, or any other metabolic disturbance",[10],insignificant incidence
same,"total body calcium, and radial and spinal bone densities relative to placebo",[10],significantly higher
"C=C1CC[C@H](O)C/C1=C/C=C1\CCC[C@]2(C)[C@@H]([C@H](C)CCC(C)(O)C(C)C)CC[C@@H]12 (some centres unmarked) [24-(OH)-D4, 24-hydroxyvitamin D4]",bone specific urine markers,[11],significantly decreases
same,incidence of hypercalcemia,[11],insignificant incidence
same,intact PTH (iPTH),[11],significantly decreases
same,radial and spinal bone densities relative to baseline values,[11],stable
same,serum calcium levels,[11],normal serum calcium levels
C=C1CC[C@H](O)C/C1=C/C=C1\CCC[C@]2(C)[C@@H]([C@H](C)/C=C/[C@H](C)C(C)C)CC[C@@H]12 [vitamin D2],"metabolite isolated from plasma lipid extracts versus standard 1α,24-(OH)2D2","[12]; vitamin D-deficient rats, oral or intraperitoneal supplementation, HPLC","co-migrated on HPLC with the standard 1α,24-(OH)2D2"
C=C1CC[C@H](O)C/C1=C/C=C1\CCC[C@]2(C)[C@@H]([C@H](C)CCCC(C)C)CC[C@@H]12 [vitamin D3],detectable 24-OH-D3 in plasma,[12]; comparable vitamin D-deficient rats,no detectable 24-OH-D3
